How the values were obtained:
[1] = cited from earlier work
[2] = Percent protonated (RNH+) and unprotonated (RN) amine form of local anesthetics as a function of pH; assay type: physicochemical; conditions: for % RNH(+) at pH 5.0: pH 5.0, protonated form; for % RN at pH 5.0: pH 5.0, unprotonated form; for % RNH(+) at pH 6.5: pH 6.5, protonated form; for % RN at pH 6.5: pH 6.5, unprotonated form; for % RNH(+) at pH 7.4: pH 7.4, protonated form; for % RN at pH 7.4: pH 7.4, unprotonated form
Source text: According to the Henderson-Hasselbalch equation:
pH=pKa+log([A^−]/[HA]) (I)

[3] = amine group of the local anesthetic; cited from earlier work
[4] = cystine/cysteine redox couple; cited from earlier work

% RNH(+) at pH 5.0 [2]	% RN at pH 5.0 [2]	% RNH(+) at pH 6.5 [2]	% RN at pH 6.5 [2]	% RNH(+) at pH 7.4 [2]	% RN at pH 7.4 [2]	Compound	other results
–	–	–	–	–	–	NC(=O)CN(CC(=O)O)CC(=O)O [ADA]	pKa ([1]; Table 3, buffer): 6.60
99.84%	0.16%	95.23%	4.77%	71.53%	28.47%	CCCNC(C)C(=O)Nc1c(C)csc1C(=O)OC (stereo not drawn) [Articaine]	–
–	–	–	–	–	–	O=S(=O)(O)CCN(CCO)CCO [BES]	pKa ([1]; Table 3, buffer): 7.09
0.99%	99.01%	0.03%	99.97%	0.00%	100.00%	CCOC(=O)c1ccc(N)cc1 [Benzocaine]	pKa (amine) [3]: 3
–	–	–	–	–	–	OCC(CO)(CO)NCCCNC(CO)(CO)CO [Bis-Tris Propane]	pKa1 ([1]; Table 3, buffer, first dissociation): 6.80
99.92%	0.08%	97.55%	2.45%	83.37%	16.63%	CCCCN1CCCCC1C(=O)Nc1c(C)cccc1C (stereo not drawn) [Bupivacaine]	–
99.98%	0.02%	99.37%	0.63%	95.23%	4.77%	CCN(CC)CCOC(=O)c1ccc(N)cc1Cl [Chloroprocaine]	pKa (amine) [3]: 8.7
99.98%	0.02%	99.50%	0.50%	96.17%	3.83%	CCCCOc1cc(C(=O)NCCN(CC)CC)c2ccccc2n1 [Dibucaine]	pKa (amine) [3]: 8.8
99.80%	0.20%	94.06%	5.94%	66.61%	33.39%	CCCN(CC)C(CC)C(=O)Nc1c(C)cccc1C (stereo not drawn) [Etidocaine]	–
99.87%	0.13%	96.17%	3.83%	75.97%	24.03%	CCN(CC)CC(=O)Nc1c(C)cccc1C [Lidocaine]	–
–	–	–	–	–	–	O=S(=O)(O)CCCCN1CCOCC1 [MOBS]	pKa ([1]; Table 3, buffer): 7.60
–	–	–	–	–	–	O=C(O)CC(O)C(=O)O (stereo not drawn) [Malate]	pKa2 ([1]; Table 3, buffer, second dissociation): 5.13
99.75%	0.25%	92.64%	7.36%	61.31%	38.69%	Cc1cccc(C)c1NC(=O)C1CCCCN1C (stereo not drawn) [Mepivacaine]	–
99.87%	0.13%	96.17%	3.83%	75.97%	24.03%	CCCNC(C)C(=O)Nc1ccccc1C (stereo not drawn) [Prilocaine]	–
99.99%	0.01%	99.60%	0.40%	96.93%	3.07%	CCN(CC)CCOC(=O)c1ccc(N)cc1 [Procaine]	–
99.92%	0.08%	97.55%	2.45%	83.37%	16.63%	CCCN1CCCC[C@H]1C(=O)Nc1c(C)cccc1C [Ropivacaine]	–
–	–	–	–	–	–	O=S(=O)(O)CCNC(CO)(CO)CO [TES]	pKa ([1]; Table 3, buffer): 7.50
99.94%	0.06%	98.04%	1.96%	86.32%	13.68%	CCCCNc1ccc(C(=O)OCCN(C)C)cc1 [Tetracaine]	–
–	–	–	–	–	–	O=C(O)CNC(CO)(CO)CO [Tricine]	pKa ([1]; Table 3, buffer): 8.05
–	–	–	–	–	–	N[C@@H](CS)C(=O)O [cysteine]	standard reduction potential E° [4]: −0.34 V
–	–	–	–	–	–	CCC(CC)(C(=O)O)C(=O)O [diethylmalonic acid]	pKa (value in parentheses after the buffer name) ([1]; text list of pH buffers, b28): 7.2

— patent US20120029085A1, “STABILIZATION OF QUINOL COMPOSITION SUCH AS CATECHOLAMINE DRUGS” (priority 2010, published 2012)
